One experiment concerns the target human P2X2/3 receptor (Homo sapiens (Human), UniProt P56373+Q9UBL9). Nature of the experiment: Inhibitory activity on human P2X2/3 receptor (calcium 6 dye FLIPR assay, agonist α,β-MeATP). Format: cell-based. The conditions noted are these: HEK293-P2X2/3 stably expressing cell line, FLIPR Tetra. On the procedure:
(§1) Biological Assay: Determination of the Inhibitory Activity of the Compounds on Human P2X3 and P2X2/3 Receptors
(§2) Cells were seeded into a poly-D-lysine-coated 384-well cell culture plate (Corning) at a density of 11,000 cells/well/25 μL of cell inoculation medium, and were cultured in a cell incubator overnight. On the day of the test, the calcium 6 dye was diluted to a 2× concentration with a assay buffer, 25 μL of the 2× calcium 6 dye was added to the 384-well cell culture plate, which was incubated at 37° C. for 2 hours, and then placed at room temperature for further use. The test compound and the agonist, α,β-MeATP were diluted to a 7× concentration with the assay buffer, 10 μL of the 7× test compound was added to the 384-well cell culture plate, which was incubated at room temperature for 15 minutes, and 10 μL of the 7× α,β-MeATP was transferred into the 384-well cell culture plate. The data were measured and analyzed using FLIPR Tetra, and the half inhibitory concentration (IC50) of the test compound on P2X3 and P2X2/3 receptors was calculated with the GraphPad Prism four-parameter equation.
(§3) Cell lines: human embryonic kidney cells HEK293-P2X3 and HEK293-P2X2/3 stably expressing cell lines;
(§4) Complete cell culture medium: DMEM High Glucose (Life Technology), which contained 10% fetal bovine serum, 4 mM GlutaMAX, 1% penicillin-streptomycin, and 350 μg/mL G418;
(§5) Cell inoculation medium: DMEM High Glucose (Life Technology), which contained 2% fetal bovine serum, and 4 mM GlutaMAX;
(§6) Cell culture conditions: 37° C., 5% CO2;
(§7) Assay buffer: HBSS (containing calcium and magnesium ions), which contained 20 mM HEPES;
(§8) Detection equipment: FLIPR Tetra (Molecular Devices);

The target in another experiment is human P2X3 receptor (Homo sapiens (Human), UniProt P56373). Description: Inhibitory activity on human P2X3 receptor (calcium 6 dye FLIPR assay, agonist α,β-MeATP). The note with it: HEK293-P2X3 stably expressing cell line, FLIPR Tetra. The class given is cell-based. The method, then:
as §1, §2, §3, §4, §5, §6, §7, §8

SMILES strings stand for the structures. pIC50: −log10 of the molar value.

Sequence of human P2X3 receptor (P56373 whole entry): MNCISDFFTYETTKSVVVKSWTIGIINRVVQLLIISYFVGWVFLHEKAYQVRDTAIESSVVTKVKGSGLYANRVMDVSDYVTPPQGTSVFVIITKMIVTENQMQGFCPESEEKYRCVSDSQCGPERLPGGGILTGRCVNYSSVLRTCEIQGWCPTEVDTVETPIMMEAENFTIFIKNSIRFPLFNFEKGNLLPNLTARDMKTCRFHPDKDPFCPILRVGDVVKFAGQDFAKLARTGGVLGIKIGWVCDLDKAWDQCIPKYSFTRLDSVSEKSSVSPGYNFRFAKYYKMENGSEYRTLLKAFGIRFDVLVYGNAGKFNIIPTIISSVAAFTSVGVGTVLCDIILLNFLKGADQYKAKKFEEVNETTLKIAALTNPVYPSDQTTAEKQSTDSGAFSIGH
Sequence of human P2X2/3 receptor (Q9UBL9 whole entry): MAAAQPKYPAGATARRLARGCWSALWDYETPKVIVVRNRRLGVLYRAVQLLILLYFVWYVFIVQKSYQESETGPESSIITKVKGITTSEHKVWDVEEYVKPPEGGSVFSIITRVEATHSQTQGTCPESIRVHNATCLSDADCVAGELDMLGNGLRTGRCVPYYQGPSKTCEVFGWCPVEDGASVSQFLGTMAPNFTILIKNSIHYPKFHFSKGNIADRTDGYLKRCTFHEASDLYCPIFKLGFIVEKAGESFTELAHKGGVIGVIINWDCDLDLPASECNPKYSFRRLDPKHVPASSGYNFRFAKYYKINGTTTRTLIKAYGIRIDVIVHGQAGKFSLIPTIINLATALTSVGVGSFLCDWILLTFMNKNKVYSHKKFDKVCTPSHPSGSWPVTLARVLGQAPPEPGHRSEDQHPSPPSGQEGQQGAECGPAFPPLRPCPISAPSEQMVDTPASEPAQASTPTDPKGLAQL
Sequence of human P2X2/3 receptor (P56373 whole entry): as the sequence (P56373 whole entry) above

Turning to `C#Cc1cc(Oc2cnc(NCC(O)CO)nc2N)c(C(C)C)cn1` (stereo not drawn) [Compound C229, 3-((4-amino-5-((2-ethynyl-5-isopropyl-pyridin-4-yl)oxy)pyrimidin-2-yl)amino) propane-l,2-diol], the pIC50 on human P2X2/3 receptor was 6.95; on human P2X3 receptor, 7.19.
Take `CC(C)c1cnc(Cl)cc1Oc1cnc(N)nc1N` [Compound C3, 5-((2-chloro-5-isopropylpyridin-4-yl)oxy)pyrimidine-2,4-diamine]: the pIC50 at human P2X2/3 receptor was 6.47; at human P2X3 receptor, 6.69.
Take `CC(C)c1cnc(C#CC2CC2)cc1Oc1cnc(N)nc1N` [Compound C142, 5-((2-(cyclo-propylethynyl)-5-isopropylpyrdin-4-yl)oxy) pyrimidine-2,4-diamine]: the negative-log IC50 (pIC50) on human P2X2/3 receptor is 6.26; at human P2X3 receptor, 6.52.
Take `CC(C)c1cnc(Cl)cc1Oc1cnc(NC(CO)CO)nc1N` [Compound C218, 2-((4-amino-5-((2-chloro-5-isopropyl-pyridin-4-yl)oxy)pyrimidin-2-yl)amino) propane-1,3-diol]: the values for the pIC50 on human P2X2/3 receptor and on human P2X3 receptor were 6.42 and 6.73, respectively.
For the compound `CCNc1cc(Oc2cnc(N)nc2N)c(C(C)C)cn1` [Compound C118, 5-((2-(ethylamino)-5-isopropylpyridin-4-yl)oxy) pyrimidine-2,4-diamine], the pIC50 at human P2X2/3 receptor is 6.44; at human P2X3 receptor, 6.85.
With `C=Cc1cc(Oc2cnc(N)nc2N)c(C(C)C)cn1` [Compound C43], the figures for the negative-log IC50 (pIC50) on human P2X2/3 receptor and on human P2X3 receptor were 6.74 and 7.26, respectively.
For `CCc1cc(Oc2cnc(N)nc2N)c(C(C)C)cn1` [Compound C15, 5-((2-ethyl-5-isopropylpyridin-4-yl)oxy)pyrimidine-2,4-diamine], in that order: 6.10 and 6.51.
`C#Cc1cc(Oc2cnc(N)nc2NCCO)c(C(C)C)cn1` [Compound C211, 2-((2-amino-5-((2-ethynyl-5-isopropylpyridin-4-yl)oxy)pyrimidin-4-yl)amino)ethanol]: the pIC50 was 6.92 at human P2X2/3 receptor and 7.19 at human P2X3 receptor.
For `CC(C)c1cnc(Br)cc1Oc1cnc(NCCO)nc1N` [Compound C236, 2-((4-amino-5-((2-bromo-5-isopropyl-pyridin-4-yl)oxy)pyrimidin-2-yl)amino)ethanol], the figures for the pIC50 on human P2X2/3 receptor and on human P2X3 receptor were 6.87 and 7.06, respectively.
Regarding `CC(C)c1cnc(-c2ccco2)cc1Oc1cnc(N)nc1N` [Compound C39, 5-((2-(furan-2-yl)-5-isopropylpyridin-4-yl)oxy)pyrimidine-2,4-diamine], the pIC50 on human P2X2/3 receptor is 6.61; on human P2X3 receptor it was 6.78.
Consider `CC(C)c1cnc(C#Cc2ccc(N(C)C)cc2)cc1Oc1cnc(N)nc1N` [Compound C148, 5-((2-((4-(dimethylamino)phenyl)ethynyl)-5-isopropylpyridin-4-yl)oxy) pyrimidine-2,4-diamine], for which the negative-log IC50 (pIC50) at human P2X2/3 receptor is 6.95; on human P2X3 receptor, 6.67.
For `CC(C)c1cnc(Br)cc1Oc1cnc(N)nc1NC1CC1` [Compound C179, 5-((2-bromo-5-isopropylpyridin-4-yl)oxy)-N^4-cyclopropyl-pyrimidine-2,4-diamine], the pIC50 on human P2X2/3 receptor was 7.37; at human P2X3 receptor, 7.29.
As for `CCc1cc(Sc2cnc(N)nc2N)c(C(C)C)cn1` [Compound C127, 5-((2-ethyl-5-isopropylpyridin-4-yl)thio)pyrimidine-2,4-diamine], the pIC50 at human P2X2/3 receptor is 6.63; on human P2X3 receptor, 6.83.
Regarding `CNc1cc(Oc2cnc(N)nc2N)c(C(C)C)cn1` [Compound C22, 5-((5-isopropyl-2-(methylamino)pyridin-4-yl)oxy)pyrimidine-2,4-diamine], the values for the pIC50 at human P2X2/3 receptor and at human P2X3 receptor were 7.24 and 7.43, respectively.
With `COc1ccc(C#Cc2cc(Oc3cnc(N)nc3N)c(C(C)C)cn2)cc1` [Compound C136, 5-((5-isopropyl-2-((4-methoxyphenyl)ethynyl)pyridin-4-yl)oxy) pyrimidine-2,4-diamine], the results for the pIC50 at human P2X2/3 receptor and at human P2X3 receptor were 6.38 and 6.57, respectively.
`CC(C)Nc1cc(Oc2cnc(N)nc2N)c(C(C)C)cn1` [Compound C120, 5-((5-isopropyl-2-(isopropylamino)pyridin-4-yl)oxy)pyrimidine-2,4-diamine]: the pIC50 on human P2X3 receptor is 6.31.
On to `C=C(C)c1cnc(SC)cc1Oc1cnc(N)nc1N` [Compound C208, 5-((2-(methylthio)-5-(prop-1-en-2-yl)pyridin-4-yl)oxy)pyrimidine-2,4-diamine], for which the negative logarithm of the IC50 (pIC50) at human P2X2/3 receptor was 6.98; on human P2X3 receptor, 7.12.
Regarding `C=C(C)c1cnc(NC)cc1Oc1cnc(N)nc1N` [C192], the pIC50 at human P2X2/3 receptor was 7.16; at human P2X3 receptor, 7.28.
Consider `CNc1nc(N)ncc1Oc1cc(Br)ncc1C(C)C` [Compound C172, 5-((2-bromo-5-isopropylpyridin-4-yl)oxy)-N^4-methyl-pyrimidine-2,4-diamine], for which the values for the pIC50 at human P2X2/3 receptor and on human P2X3 receptor were 6.68 and 6.94, respectively.
Turning to `CC(C)c1cnc(C#Cc2ccccc2)cc1Oc1cnc(N)nc1N` [Compound C135, 5-((5-isopropyl-2-(phenyl-ethynyl)pyridin-4-yl)oxy) pyrimidine-2,4-diamine], the negative-log IC50 (pIC50) on human P2X2/3 receptor was 6.31; at human P2X3 receptor it was 6.52.
As for `CC(C)c1cnc(/C=C/c2ccccc2)cc1Oc1cnc(N)nc1N` [Compound C138, (E)-5-((5-isopropyl-2-styrylpyridin-4-yl)oxy) pyrimidine-2,4-diamine], on human P2X3 receptor, the pIC50 is 6.20.
On to `CC(C)c1cnc(Br)cc1Oc1cnc(N)nc1NCCOCCO` [Compound C201, 2-(2-((2-amino-5-((2-bromo-5-isopropylpyridin-4-yl)oxy)pyrimidin-4-yl)amino)ethoxy) ethanol], for which the pIC50 was 6.30 on human P2X2/3 receptor and 6.50 at human P2X3 receptor.
`CC(C)c1cc(Oc2cnc(N)nc2N)c(C(C)C)cn1` [Compound C16, 5-((2,5-diisopropylpyridin-4-yl)oxy)pyrimidine-2,4-diamine]: on human P2X3 receptor, the pIC50 was 6.10.
With `CC(C)c1c[n+]([O-])c(Br)cc1Oc1cnc(N)nc1N` [C1], on human P2X3 receptor, the pIC50 was 6.13.
Same read-out and setting: the figure for `CC(C)c1cnc(C#Cc2cnc3cccnn23)cc1Oc1cnc(N)nc1N` [Compound C195, 5-((2-(imidazo[1,2-b]pyridazin-3-ylethynyl)-5-isopropylpyridin-4-yl)oxy)pyrimidine-2,4-diamine] is 6.50; for `CC(C)c1cnc(S(N)(=O)=O)cc1Oc1cnc(N)nc1N` [Compound C6, 4-((2,4-diaminopyrimidin-5-yl)oxy)-5-isopropylpyridine-2-sulfonamide] it is 6.46; for `CC(C)c1cnc(C(F)(F)F)cc1Oc1cnc(N)nc1N` [Compound C67, 5-((5-isopropyl-2-(trifluoromethyl)pyridin-4-yl)oxy)pyrimidine-2,4-diamine] it is 6.31.
The same measure, in the same setting: the figure for `CC(C)c1cnc(-c2cn[nH]c2)cc1Oc1cnc(N)nc1N` [Compound C35, 5-((5-isopropyl-2-(1H-pyrazol-4-yl)pyridin-4-yl)oxy)pyrimidine-2,4-diamine] is 5.93.
As for `CC(C)c1cnc(Br)cc1Oc1cnc(N)nc1N[C@H](C)C1CC1` [Compound C182, (R)-5-((2-bromo-5-isopropylpyridin-4-yl)oxy)-N^4-(1-cyclopro-pylethyl) pyrimidine-2,4-diamine], the pIC50 on human P2X3 receptor is 6.17.
Take `CC(C)c1cnc(CC(=O)c2ccc(N(C)C)cc2)cc1Oc1cnc(N)nc1N` [Compound C155]: on human P2X3 receptor, the pIC50 was 6.03.
`CCSc1cc(Sc2cnc(N)nc2N)c(C(C)C)cn1` [Compound C125, 5-((2-(ethylthio)-5-isopropyl-pyridin-4-yl)thio) pyrimidine-2,4-diamine]: the pIC50 at human P2X3 receptor was 6.14.
In the case of `C=C(OCC)c1cc(Oc2cnc(N)nc2N)c(C(C)C)cn1` [Compound C45, 5-((2-(1-ethoxyvinyl)-5-isopropylpyridin-4-yl)oxy)pyrimidine-2,4-diamine], at human P2X3 receptor, the pIC50 is 6.36.
The same measure, in the same setting: in the case of `COc1cc(Oc2cnc(N)nc2N)c(Br)cn1` [Compound C124, 5-((5-bromo-2-methoxypyridin-4-yl)oxy)pyrimidine-2,4-diamine] it was 5.91.
As to `CC(C)c1cnc(-n2cccc2)cc1Oc1cnc(N)nc1N` [Compound C38, 5-((5-isopropyl-2-(1H-pyrrol-1-yl)pyridin-4-yl)oxy)pyrimidine-2,4-diamine], the pIC50 on human P2X3 receptor is 6.10.
Consider `CNc1ncc(Oc2cc(Br)ncc2C(C)C)c(NC)n1` [C227], for which the pIC50 on human P2X3 receptor was 6.02.
Still for that read-out and setting: the figure for `CC(C)c1cnc(C(N)=O)cc1Oc1cnc(N)nc1N` [Compound C129, 4-((2,4-diamino-pyrimidin-5-yl)oxy)-5-isopropyl-picolinamide] is 6.42; for `CC(C)c1cnc(NCCO)cc1Oc1cnc(NCCO)nc1N` [Compound C242, 2-((4-((4-amino-2-((2-hydroxyethyl)amino)pyrimidin-5-yl)oxy)-5-isopropyl-pyridin-2-yl)amino)ethanol] it is 6.13.

One may read the pIC50 as the IC50 on a negative log10 scale, so that one unit is a factor of ten.

Values taken from patent US11919918B2, “P2X3 andor P2X2/3 receptor antagonist, pharmaceutical composition comprising same, and use thereof” (BEIJING TIDE PHARMACEUTICAL CO., LTD., priority 2017, dated 2024).
